According to US9834660B2, “Rare earth metal complexes that excite in the long UV wavelength range” (HONEYWELL INTERNATIONAL INC., priority 2007, dated 2017):

Experiment: Lightfastness: fluorescence intensity of dried drops on filter paper before and after SOL2 irradiation (simulated sunlight behind window glass)
Format: physicochemical
Details: dried drop on filter paper; for fluorescence intensity after 20 h of irradiation: after 20 h of irradiation (SOL2), 366 nm; for starting fluorescence intensity under 366 nm wavelength: before SOL2 irradiation, formula (IV) 5% solution in water, comparator in ethanol
Text: As used herein, “lightfast,” “lightfastness,” and “light stable” are used interchangeably as measures of the degree of stability of fluorescence when a compound or composition is irradiated with light energy. The lightfastness of the europium complex of formula (IV), Europium[tris-4,4′-[3-[4-(4-sulfophenyl)-2-pyridinyl]-1,2,4-triazine-5,6-diphenyl]-bis-benzenesulfonic acid, trisodium)] chloride, was compared with a known europium diketonate complex, europium tris-benzoyltrifluoro-acetone, as follows: a 5% solution containing formula (IV) (in water) and a solution of europium-tris-benzoyltrifluoro-acetone (in ethanol) were prepared. One drop from each solution was placed onto a piece of filter paper. The drops were dried in air. The dried drops were then irradiated with SOL2 equipment (simulation of sunlight behind window glass). The starting fluorescence intensity under 366 nm wavelength for the drop containing europium-tris-benzoyltrifluoro-acetone was 19.4 cd/m^2, and the starting fluorescence intensity for the drop containing formula (IV) was 11.5 cd/m^2. After 20 h of irradiation at 366 nm, the fluorescence intensity for the drop containing europium-tris-benzoyltrifluoro-acetone had decreased to only 3.2 cd/m^2, as compared with a fluorescence intensity for the drop containing formula (IV) that was 10.7 cd/m^2.
This occurred even though the molar concentration of the solution containing formula (IV) was lower than the molar concentration of europium-tris-benzoyltrifluoro-acetone (2.2×10^−4 mol versus 6×10^−4 mol, respectively).

Substance | fluorescence intensity after 20 h of irradiation [cd/m^2] | starting fluorescence intensity under 366 nm wavelength [cd/m^2]
Europium[tris-4,4′-[3-[4-(4-sulfophenyl)-2-pyridinyl]-1,2,4-triazine-5,6-diphenyl]-bis-benzenesulfonic acid, trisodium)] chloride [formula (IV)] | 10.7 | 11.5
europium tris-benzoyltrifluoro-acetone [europium-tris-benzoyltrifluoro-acetone] | 3.2 | 19.4
